Source: patent US9034352B2, “Microbicide combinations containing silver” (Rohm and Haas Company, priority 2006, dated 2015)
Where two headings read alike, the source gives them in different places.

Tests used:
Experiment in all cases: Synergy test, high resolution MIC microtiter plate assay
Type in all cases: cell-based
[1] = tested on: Samonella choleraesuis (S. choleraesuis—ATCC #10708); details: Salmonella enterica, read-out: MIC of component acting alone (end point)
From the text: (§1) One measure of synergism is the industrially accepted method described by Kull, F. C.; Eisman, P. C.; Sylwestrowicz, H. D. and Mayer, R. L., in Applied Microbiology 9:538-541 (1961), using the ratio determined by the formula: Ca/CA+Cb/CB=Synergy Index (“SI”) wherein:
(§2) CA=concentration of compound A (first component) in ppm, acting alone, which produced an end point (MIC of Compound A).
(§3) Ca=concentration of compound A in ppm, in the mixture, which produced an end point.
(§4) CB=concentration of compound B (second component) in ppm, acting alone, which produced an end point (MIC of Compound B).
(§5) Cb=concentration of compound B in ppm, in the mixture, which produced an end point.
(§6) When the sum of Ca/CA and Cb/CB is greater than one, antagonism is indicated. […] The lower the SI, the greater the synergy shown by that particular mixture. The minimum inhibitory concentration (MIC) of an antimicrobial compound is the lowest concentration tested under a specific set of conditions that prevents the growth of added microorganisms.
(§7) Synergy tests were conducted using standard microtiter plate assays with media designed for optimal growth of the test microorganism. Soybean Casein Digest Broth (Tryptic Soy Broth, TSB medium) or minimal salt medium supplemented with 0.2% glucose and 0.1% yeast extract (M9GY medium) was used for testing bacteria; Potato Dextrose Broth (PDB medium) was used for testing yeast and mold. In this method, a wide range of combinations of microbicides was tested by conducting high resolution MIC assays in the presence of various concentrations of the biocides. High resolution MICs were determined by adding varying amounts of microbicide to one column of a microtitre plate and doing subsequent ten-fold dilutions using an automated liquid handling system.
The synergy of the combinations of the present invention was determined against four bacteria, gram positive Staphylococcus aureus (S. aureus—ATCC #6538) and gram negative Pseudomonas aeruginosa (P. aeruginosa—ATCC #15442), Samonella choleraesuis (S. choleraesuis—ATCC #10708) and Esherichia coli (E. coli—ATCC #8739), a yeast, Candida albicans (C. albicans—ATCC 10231), and a mold, Aspergillus niger (A. niger—ATCC 16404). The bacteria were used at a concentration of about 1-6×10^6 bacteria per mL and the yeast and mold at 1-5×10^5 fungi per mL. These microorganisms are representative of natural contaminants in many consumer and industrial applications. […] (yeast and mold) or 30° C. (bacteria).
(§8) The end point values in the following examples for the silver-polymer complex are reported on an active silver ion basis.

[2] = tested on: Aspergillus niger (A. niger—ATCC 16404); details: Aspergillus niger, A. niger, Ag-polymer on active silver ion basis, read-out: MIC of component acting alone (end point)
From the text: as §1, §2, §3, §4, §5, §6, §7
(§9) The bacteria were used at a concentration of about 1-6×10^6 bacteria per mL and the yeast and mold at 1-5×10^5 fungi per mL. These microorganisms are representative of natural contaminants in many consumer and industrial applications. […] (yeast and mold) or 30° C. (bacteria).

[3] = tested on: Pseudomonas aeruginosa (P. aeruginosa—ATCC #15442); details: Pseudomonas aeruginosa, ATCC15442, P. aeruginosa, Ag-polymer on active silver ion basis, read-out: MIC of component acting alone (end point)
From the text: as §1, §2, §3, §4, §5, §6, §7, §9

[4] = tested on: Staphylococcus aureus (S. aureus—ATCC #6538); details: Staphylococcus aureus, ATCC6538, S. aureus, Ag-polymer on active silver ion basis, read-out: MIC of component acting alone (end point)
From the text: as §1, §2, §3, §4, §5, §6, §7, §9

[5] = tested on: Candida albicans (C. albicans—ATCC 10231); details: Candida albicans, ATCC10231, C. albicans, Ag-polymer on active silver ion basis, read-out: MIC of component acting alone (end point)
From the text: as §1, §2, §3, §4, §5, §6, §7
(§10) […]. The bacteria were used at a concentration of about 1-6×10^6 bacteria per mL and the yeast and mold at 1-5×10^5 fungi per mL. These microorganisms are representative of natural contaminants in many consumer and industrial applications. […] (yeast and mold) or 30° C. (bacteria).
as §8

[6] = tested on: Esherichia coli (E. coli—ATCC #8739); details: Escherichia coli, Ag-polymer on active silver ion basis, read-out: MIC of component acting alone (end point)
From the text: as §1, §2, §3, §4, §5, §6, §7, §10, §8

[7] = ATCC16404, 168 h, contact time 7 days

SMILES	MIC [1]	MIC [2, 7]	MIC ([3]; contact time 24 hour)	MIC ([3]; contact time 48 hour)	MIC ([4]; contact time 24 hour)	MIC ([4]; contact time 48 hour)	MIC ([5]; contact time 48 hour)	MIC ([6]; ATCC8739, contact time 24 hour)	MIC ([6]; ATCC8739, contact time 48 hour)	MIC ([1]; S. choleraesuis, contact time 24 hour, Ag-polymer on active silver ion basis)	MIC ([1]; S. choleraesuis, contact time 48 hour, Ag-polymer on active silver ion basis)	MIC ([2]; ATCC16404, 72 h, contact time 3 days)	MIC ([5]; contact time 24 hour)
CCCCCCCCn1sc(Cl)c(Cl)c1=O [DCOIT, 4,5-dichloro-2-n-octyl-4-isothiazolin-3-one, reference compound]	1.5 µg/mL	2 µg/mL	1.5 µg/mL	2.9 µg/mL	0.29 µg/mL	0.29 µg/mL	0.15 µg/mL	0.29 µg/mL	0.43 µg/mL	–	–	–	–
CCCCCCCCn1sccc1=O [OIT, 2-n-octyl-4-isothiazolin-3-one, reference compound]	–	5.76 µg/mL	444 µg/mL	–	72.8 µg/mL	72.8 µg/mL	0.99 µg/mL	294 µg/mL	294 µg/mL	361 µg/mL	361 µg/mL	3.9 µg/mL	0.81 µg/mL
